Measurements reported in the supplement of paper PMC10307832.

Experiments:
Assay in all cases: relative viability (nuclei count vs DMSO), 5 days (fraction); higher = more cells survive
Dinaciclib + Lapatinib = compound: CCc1cnn2c(NCc3ccc[n+]([O-])c3)cc(N3CCCC[C@H]3CCO)nc12 [Dinaciclib] + CS(=O)(=O)CCNCc1ccc(-c2ccc3ncnc(Nc4ccc(OCc5cccc(F)c5)c(Cl)c4)c3c2)o1 [Lapatinib] (partner 2 µM)
In short: (§1)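 Five library-drug doses in √10 steps were combined with a fixed anchor-drug dose, or a single drug was given alone, by pin tool to lung cancer cell lines in 1536-well plates the day after seeding. Nuclei were stained and counted after 5 days. Relative viability is the nuclei count in treated wells over that in vehicle wells, taken as the median of duplicate plates.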

Dinaciclib + Alpelisib = compound: CCc1cnn2c(NCc3ccc[n+]([O-])c3)cc(N3CCCC[C@H]3CCO)nc12 [Dinaciclib] + Cc1nc(NC(=O)N2CCC[C@H]2C(N)=O)sc1-c1ccnc(C(C)(C)C(F)(F)F)c1 [Alpelisib] (partner 2 µM)
In short: as §1

Dinaciclib + Dasatinib = compound: CCc1cnn2c(NCc3ccc[n+]([O-])c3)cc(N3CCCC[C@H]3CCO)nc12 [Dinaciclib] + Cc1nc(Nc2ncc(C(=O)Nc3c(C)cccc3Cl)s2)cc(N2CCN(CCO)CC2)n1 [Dasatinib] (partner 0.075 µM)
In short: as §1

Dinaciclib + Phenformin = compound: CCc1cnn2c(NCc3ccc[n+]([O-])c3)cc(N3CCCC[C@H]3CCO)nc12 [Dinaciclib] + N=C(N)NC(=N)NCCc1ccccc1 [Phenformin] (partner 250 µM)
In short: as §1

Dinaciclib + AZD7762 = compound: CCc1cnn2c(NCc3ccc[n+]([O-])c3)cc(N3CCCC[C@H]3CCO)nc12 [Dinaciclib] + NC(=O)Nc1cc(-c2cccc(F)c2)sc1C(=O)N[C@H]1CCCNC1 [AZD7762] (partner 0.2 µM)
In short: as §1

| Cell Line | relative viability (Dinaciclib + Lapatinib; first compound 0.009487 µM) | relative viability (Dinaciclib + Lapatinib; first compound 0.03 µM) | relative viability (Dinaciclib + Lapatinib; first compound 0.09487 µM) | relative viability (Dinaciclib + Lapatinib; first compound 0.3 µM) | relative viability (Dinaciclib + Alpelisib; first compound 0.009487 µM) | relative viability (Dinaciclib + Alpelisib; first compound 0.03 µM) | relative viability (Dinaciclib + Alpelisib; first compound 0.09487 µM) | relative viability (Dinaciclib + Alpelisib; first compound 0.3 µM) | relative viability (Dinaciclib + Dasatinib; first compound 0.009487 µM) | relative viability (Dinaciclib + Dasatinib; first compound 0.03 µM) | relative viability (Dinaciclib + Dasatinib; first compound 0.09487 µM) | relative viability (Dinaciclib + Dasatinib; first compound 0.3 µM) | relative viability (Dinaciclib + Phenformin; first compound 0.009487 µM) | relative viability (Dinaciclib + Phenformin; first compound 0.03 µM) | relative viability (Dinaciclib + Phenformin; first compound 0.09487 µM) | relative viability (Dinaciclib + Phenformin; first compound 0.3 µM) | relative viability (Dinaciclib + AZD7762; first compound 0.009487 µM) | relative viability (Dinaciclib + AZD7762; first compound 0.03 µM) | relative viability (Dinaciclib + AZD7762; first compound 0.09487 µM) | relative viability (Dinaciclib + AZD7762; first compound 0.3 µM) |
| --- | --- | --- | --- | --- | --- | --- | --- | --- | --- | --- | --- | --- | --- | --- | --- | --- | --- | --- | --- | --- |
| NCI-H2405 | 0.957 | 0.197 | 0.207 | 0.183 | 0.876 | 0.22 | 0.208 | 0.184 | 0.228 | 0.259 | 0.224 | 0.218 | 0.417 | 0.253 | 0.223 | 0.186 | 0.539 | 0.202 | 0.193 | 0.196 |
| NCI-H3122 | 1.01 | 0.185 | 0.147 | 0.169 | 0.489 | 0.157 | 0.119 | 0.15 | 0.616 | 0.0841 | 0.0766 | 0.0827 | 0.172 | 0.101 | 0.103 | 0.106 | 1.07 | 0.107 | 0.0953 | 0.0953 |
| PC-3 [JPC-3] | 0.431 | 0.419 | 0.365 | 0.23 | 0.99 | 0.899 | 0.362 | 0.21 | 0.991 | 0.978 | 0.465 | 0.194 | 0.492 | 0.476 | 0.326 | 0.204 | 0.904 | 0.476 | 0.308 | 0.279 |
| PC-14 | 0.305 | 0.221 | 0.106 | 0.0778 | 0.947 | 0.515 | 0.0838 | 0.0509 | 0.153 | 0.0351 | 0.0238 | 0.0244 | 0.279 | 0.0631 | 0.0459 | 0.0379 | 0.389 | 0.0715 | 0.0519 | 0.0512 |
| RERF-LC-KJ | 0.958 | 0.563 | 0.151 | 0.128 | 0.826 | 0.41 | 0.154 | 0.161 | 0.36 | 0.192 | 0.15 | 0.159 | 0.35 | 0.223 | 0.224 | 0.185 | 1.04 | 0.498 | 0.114 | 0.155 |
